Assay: Non-dairy cream filling evaluation (Example 16)
Settings: 0.01% (w/w) in liquid preparation
Description: Polysorbate 60 has been replaced by rhamnolipids in non-dairy cream filling for pastries.
The following preparation process was used: The starch is mixed with the water, sugar and glucose syrup are added together with the emulsifier and titanium dioxide. After mixing until homogenous all the other ingredients are added and mixed again. The total mixture is heated until jellification of the starch.
Bake stability (180° C., 30 minutes), color, taste, speed of incorporation of fat into the mixture and possible separation of fat during conservation are evaluated (Table 16).

- Stability during conservation: Stable during
Substance: Polysorbate 60

Source: patent publication US20060233935A1, “Rhamnolipids in bakery products” (priority 2002, published 2006)
